Assay results from ChEMBL document CHEMBL1131491, “Comparative binding energy analysis of HIV-1 protease inhibitors: incorporation of solvent effects and validation as a powerful tool in receptor-based drug design” (J Med Chem, 1998).

Target: Human immunodeficiency virus type 1 protease (Human immunodeficiency virus 1, UniProt Q72874)
Assay: Inhibitory activity against HIV-1 protease.

IC50	SMILES
7.59 nM	CC(C)(C)NC(=O)[C@@H]1C[C@@H]2CCCC[C@@H]2CN1C[C@@H](O)C[C@@H](Cc1ccccc1)C(=O)N[C@H]1c2ccccc2CC1O (some centres not stated)
0.178 nM	CC(C)(C)OC(=O)N[C@@H](Cc1ccccc1)[C@@H](O)C[C@@H](Cc1ccccc1)C(=O)N[C@H]1c2ccccc2OC[C@H]1O
562 nM	CC(C)(C)OC(=O)N[C@@H](Cc1ccccc1)[C@@H](O)CC(=O)N[C@H]1c2ccccc2C[C@H]1O
0.692 nM	CC(C)(C)OC(=O)N[C@@H](Cc1ccccc1)[C@@H](O)C[C@@H](Cc1ccccc1)C(=O)N[C@H]1c2ccccc2CC[C@H]1O

Continued, compound first:

SMILES	IC50
CC(C)(C)OC(=O)N[C@@H](Cc1ccccc1)[C@@H](O)C[C@@H](Cc1ccccc1)C(=O)N[C@H]1C=CC[C@H]1O	9.55 nM
C[C@@H](NC(=O)[C@H](Cc1ccccc1)C[C@H](O)[C@H](Cc1ccccc1)NC(=O)OC(C)(C)C)c1ccccc1	145 nM
CC(C)(C)NC(=O)[C@@H]1C[C@@H]2CCCC[C@@H]2CN1C[C@@H](O)[C@H](Cc1ccccc1)NC(=O)OC(C)(C)C	3020 nM
